Key:
[1] = tested on: meningioma; assay: Phase I clinical trial of honokiol liposome for injection: cranial MR re-examination of meningioma patients, RANO standard; assay type: in vivo, human; settings: summary statement of the clinical trials
Text: (§1) Description of the Subject: • person; • on Jan. […] 27, 2018, the subject underwent the resection of a deep skull bottom lesion, endothelial meningoma, and local lesion being hemangioma-type meningoma, accompanied by bleeding, showing the non-typical meningioma, infiltrating bone tissue, comprehensive to malignant meningoma; immunohistochemistry: EMA (positive), PR (scattered in a little positive), SSTR (focal positive), CD34 (blood vessel positive), CD99 (+), S100 (-), Syn (-), CgA (-), CK (occasionally positive), Ki67 (about 8-20%); • in February 2019, the subject was treated for intracranial infection; • in June 2019, the subject received whole brain radiotherapy; • on Mar. 5, 2021, the subject re-examined the cranial MR and the tumor recurred; in order to further treat, at the outpatient of Beijing […] […]

[2] = Phase I clinical trial of clinical safety and tolerance of honokiol liposome for injection, safety analysis set (patients with advanced malignant solid tumors); assay type: in vivo, human; settings: summary statement of the clinical trials
Text: as §1

With `C=CCc1ccc(O)c(-c2ccc(O)c(CC=C)c2)c1` [honokiol, 3′,5-di-2-propenyl-1,1′-biphenyl-2,4′-diphenol] the “overall efficacy against meningioma in clinical trials” value [1] was “effectively treat the meningioma” and the “overall safety and tolerance in clinical trials” value [2] was “good safety and tolerance”.

Reference: patent publication US20240165047A1, “Use Of Honokiol In Preparation Of Drug For Treating Meningioma” (Chengdu Jinrui Foundation Biotech Co., Ltd., priority 2021, published 2024)
